Values of other authors, collected in patent publication US20190275119A1, “PROOXIDANT CANCER CHEMO-SUPPRESSORS AND CHEMO-PROTECTORS AND METHODS OF USE RELATED THERETO” (priority 2016, published 2019).

Tested on: tumor cells
Details: low concentrations (about 10 μM)

| Compound | growth inhibition and apoptosis of tumor cells |
| --- | --- |
| O=CC=Cc1ccccc1OC(=O)c1ccccc1 [BCA, 2′-benzoyl-oxycinnamaldehyde] | inhibit growth and induce apoptosis of tumor cells |
| O=CC=Cc1ccccc1O [HCA, 2′-hydroxycinnamaldehyde] | inhibit growth and induce apoptosis of tumor cells |
